Source: patent US6391575B1, “Methods for detecting membrane derived caspase activity and modulators thereof” (IDUN Pharmaceuticals, Inc., priority 1999, dated 2002)

Columns and labels:
[1] = test system: caspase-3 in cytoplasmic fractions (697-neo and 697-Bcl-2 cells); test: Effect of exogenous cytochrome c on cytoplasmic fraction caspase activity; assay type: biochemical, human; conditions: cytochrome c during fractionation and assay; neo and Bcl-2 cells; FIG. 6B
Method: (§1) Frozen cell pellets containing ≈10^9 cells were thawed and resuspended in cold hypotonic buffer (10 mM Na-HEPES, 5 mM MgCl2, 42 mM KCl, pH 7.4) supplemented with 1 mM PMSF, 1 μg/ml leupeptin, 1 μg/ml pepstatin A, 5 μg/ml aprotinin, 0.1 mM EDTA, 0.1 mM EGTA and 5 mM DTT (Sigma) to a density of ≈1.5×10^8 cells/ml. The samples were incubated on ice for 30 min at which time the cells were lysed using 30-40 strokes with a Dounce homogenizer. The sample was centrifuged twice for 10 min at 500×g, 4° C. to separate the nuclei. The nuclear pellets were then washed twice in the same buffer supplemented with 1.6M sucrose, yielding the nuclear fraction. The supernatant was then centrifuged at 14,000×g for 30 min at 4° C. to pellet the heavy membranes. […] Protein concentrations were measured using Protein Assay Kit II from BioRad with bovine serum albumin as the calibration standard. […]
(§2) Heavy membrane samples were diluted to 1 mg/ml in hypotonic buffer or in 0.25 M sucrose, 10 mM MOPS, 2 mM EDTA, pH 7.4 (Mancini, et al., 1998) containing 5 mM DTT with or without 1% NP-40. […] To examine the time course of spontaneous activation of caspase activity from membranes, 50 μl of heavy membrane slurry containing 50-100 μg total protein was mixed with 200 μl hypotonic buffer containing 25 μM DEVD-amc substrate and 6 mM DTT in 96 well Cytofluor plates and fluorescence was measured over time. […]

[2] = test system: membrane-associated procaspase-3 (697-neo and 697-Bcl-2 heavy membranes); test: Effect of exogenous cytochrome c on heavy membrane caspase activity; assay type: biochemical, human; conditions: 10 μg/ml bovine cytochrome c during fractionation; 1 μg/ml cytochrome c plus dATP, 40 min at 30° C.; FIG. 6A
Method: as §1, §2

[3] = biological target: T1, membrane-derived caspases (Homo sapiens, UniProt P42574); test: Kinetics of DEVD-amc hydrolysis by membrane-derived caspases; assay type: biochemical; conditions: substrate concentration varied 1-100 μM
T1 construct: endogenous in cells
T1 sequence (P42574 29-175 limits assumed): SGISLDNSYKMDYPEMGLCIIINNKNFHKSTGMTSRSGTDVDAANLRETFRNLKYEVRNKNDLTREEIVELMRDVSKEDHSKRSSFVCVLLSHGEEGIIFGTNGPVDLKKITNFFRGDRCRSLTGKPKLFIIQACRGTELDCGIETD
T1 sequence (P42574 176-277 limits assumed): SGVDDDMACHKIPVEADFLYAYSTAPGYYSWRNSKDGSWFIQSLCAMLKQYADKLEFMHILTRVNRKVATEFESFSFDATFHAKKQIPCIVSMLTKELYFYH
Method: Caspase activity was measured by mixing 50 μl of an enzyme-containing fraction and 200 μl of 25 μM DEVD-amc (Asp-Glu-Val-Asp-aminomethylcoumarin) substrate in ICE buffer (20 mM HEPES, 1 mM EDTA, 0.1% CHAPS, 10% sucrose, 5 mM DTT, pH 7.5) in duplicate Cytoplate wells. Product formation was monitored by the increase in fluorescence (ex=360 nm, em=460 nm) over 1-2 hours at 30 ° C. using the CytoFluor 4000 plate reader (Perseptive Biosystems, Framingham, Mass.). For kinetic studies, the substrate concentration was varied in the range 1-100 μM. For inhibition studies the enzyme was pretreated with 150 μl inhibitor for 30 min at room temperature prior to the addition of 50 μl of 50 μM substrate solution. Inhibitor IC50 values were determined using the equation: […]
The membrane-derived caspase activities were further characterized by measuring the inhibition of DEVD-amc cleavage by several peptide aldehyde inhibitors (Table I). […] The observed IC50 values for the membrane associated caspases are very similar to those for purified fully-processed recombinant human caspase-3. […] N-terminal microsequence analysis of activated, affinity purified heavy membrane caspase confirms that this enzyme is indeed human caspase-3.

Row | Effect on membrane-derived caspase activity (DEVD-amc cleavage) [2] | Km [3] | Substance | Effect on DEVD-amc cleavage activity of cytoplasmic fractions [1]
1 | no effect | – | cytochrome c: bovine cytochrome c (Sigma) | strongly activated
2 | – | 10 µM | Acetyl-Asp-Glu-Val-Asp-aminomethylcoumarin [DEVD-amc] | –
